Measured values as given in article PMC10763615, “Identification and engineering of potent cyclic peptides with selective or promiscuous binding through biochemical profiling and bioinformatic data analysis” (RSC Chemical Biology, 2023).
Read-outs that look alike come from different tables or passages of the source. Positions of bridges follow the written chain, without caps; N, C: chain ends. Residues, ends and D or L forms follow the SMILES beside them.

Columns and labels:
Format in all cases: binding
[1] = target: T1, FGF-R4 ECD (Homo sapiens, UniProt P22455); assay: single concentration BLI of crude peptides; conditions: read-out: KD (4)
T1 construct: DNA constructs for the extracellular domain (ECD) of human FGF-; HPC4 (C); made in house; host or cells: HEK 293-6E
T1 sequence (P22455 22-369 limits assumed): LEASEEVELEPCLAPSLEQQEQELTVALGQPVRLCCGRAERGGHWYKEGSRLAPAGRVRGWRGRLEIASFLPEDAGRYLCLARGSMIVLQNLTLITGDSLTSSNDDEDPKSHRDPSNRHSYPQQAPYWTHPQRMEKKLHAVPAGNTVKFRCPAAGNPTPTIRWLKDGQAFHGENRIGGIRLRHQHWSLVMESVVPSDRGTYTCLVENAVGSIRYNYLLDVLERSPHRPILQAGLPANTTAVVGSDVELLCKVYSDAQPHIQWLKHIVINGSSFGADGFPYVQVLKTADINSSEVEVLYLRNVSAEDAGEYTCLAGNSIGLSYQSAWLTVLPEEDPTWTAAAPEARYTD
Outline: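 Biotinylated FGF-R ECD on streptavidin biosensors was dipped into ~1 μM crude peptide in PBS pH7.4 with 0.05% Tween-20 and 0.01% BSA for association, then into buffer for dissociation, and followed by BLI. Fitted KD values were adjusted for peptide concentration measured by UPLC-CAD.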

[2] = target: T2, FGF-R1C ECD (Homo sapiens, UniProt P11362); assay: biochemical; design: DNA constructs for the extracellular domain (ECD) of human FGF-; HPC4 (C); made in house; host or cells: HEK 293-6E
T2 sequence (P11362 22-376 limits assumed): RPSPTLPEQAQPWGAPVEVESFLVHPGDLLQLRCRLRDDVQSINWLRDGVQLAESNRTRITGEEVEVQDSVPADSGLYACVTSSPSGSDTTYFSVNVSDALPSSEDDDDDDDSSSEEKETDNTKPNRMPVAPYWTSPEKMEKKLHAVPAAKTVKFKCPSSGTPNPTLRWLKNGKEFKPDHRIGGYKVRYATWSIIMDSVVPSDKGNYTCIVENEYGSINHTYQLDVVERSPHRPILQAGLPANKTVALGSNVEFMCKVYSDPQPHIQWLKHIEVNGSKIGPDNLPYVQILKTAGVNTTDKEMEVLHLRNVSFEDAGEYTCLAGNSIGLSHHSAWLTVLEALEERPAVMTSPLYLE
Outline: (§1)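 BLI, streptavidin sensors loaded with biotinylated receptor ECD. Single-point: ~1 μM crude peptide, PBS pH7.4/0.05% Tween-20/0.01% BSA; association then dissociation in buffer. KD corrected for UPLC-CAD-determined concentration.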

[3] = target: T3, FGF-R3C ECD (Homo sapiens, UniProt P22607); assay: biochemical; design: DNA constructs for the extracellular domain (ECD) of human FGF-; HPC4 (C); made in house; host or cells: HEK 293-6E
T3 sequence (P22607 23-375 limits assumed): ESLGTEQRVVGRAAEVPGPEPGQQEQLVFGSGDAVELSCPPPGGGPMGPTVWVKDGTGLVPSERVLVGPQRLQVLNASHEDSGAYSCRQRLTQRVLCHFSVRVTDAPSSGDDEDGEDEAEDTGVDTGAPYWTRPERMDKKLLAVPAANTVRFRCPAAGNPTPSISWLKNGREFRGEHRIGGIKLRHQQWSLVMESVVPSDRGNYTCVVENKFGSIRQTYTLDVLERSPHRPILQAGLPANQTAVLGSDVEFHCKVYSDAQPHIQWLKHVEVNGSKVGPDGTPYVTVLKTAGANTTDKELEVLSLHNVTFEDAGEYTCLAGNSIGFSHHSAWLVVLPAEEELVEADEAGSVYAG
Outline: as §1

[4] = crude T18 selection 1 (1:1:1) peptides, single concentration BLI (Table S4)

Structure (SMILES) | Kd [1, 4] [µM] | Kd [2] [µM] | Kd [3] [µM] | Kd ([1]; crude NNK peptides, single concentration BLI (Table S3)) [µM]
CC[C@H](C)[C@@H]1NC(=O)[C@H](CCC(=O)O)NC(=O)[C@H](CCCNC(=N)N)NC(=O)[C@@H](NC(=O)[C@H](CCSC)NC(C)=O)CSSC[C@@H](C(=O)NCC(=O)N[C@@H](CO)C(=O)NCC(=O)N[C@@H](CO)C(=O)N[C@@H](CC(=O)O)C(=O)N[C@@H](Cc2ccc(O)cc2)C(=O)N[C@@H](CCCCN)C(=O)N[C@@H](CC(=O)O)C(=O)N[C@@H](CC(=O)O)C(=O)N[C@@H](CC(=O)O)C(=O)N[C@@H](CC(=O)O)C(=O)N[C@@H](CCCCN)C(N)=O)NC(=O)[C@H](CCC(N)=O)NC(=O)[C@H](Cc2c[nH]c3ccccc23)NC(=O)[C@H](CC(C)C)NC(=O)[C@H](CCC(N)=O)NC(=O)[C@H](Cc2c[nH]c3ccccc23)NC(=O)[C@H](Cc2ccc(O)cc2)NC(=O)[C@H](CCCNC(=N)N)NC1=O (Ac-MCREIRYWQLWQCGSGSDYKDDDDK-NH2; disulfide 2-13) | 0.027 | > 10 | > 10 | 
CC[C@H](C)[C@@H]1NC(=O)[C@H](CCC(=O)O)NC(=O)[C@H](CCCNC(=N)N)NC(=O)[C@H](CCCCN)NC(=O)[C@@H](NC(=O)[C@H](CCSC)NC(C)=O)CSSC[C@@H](C(=O)NCC(=O)N[C@@H](CO)C(=O)NCC(=O)N[C@@H](CO)C(=O)N[C@@H](CC(=O)O)C(=O)N[C@@H](Cc2ccc(O)cc2)C(=O)N[C@@H](CCCCN)C(=O)N[C@@H](CC(=O)O)C(=O)N[C@@H](CC(=O)O)C(=O)N[C@@H](CC(=O)O)C(=O)N[C@@H](CC(=O)O)C(=O)N[C@@H](CCCCN)C(N)=O)NC(=O)[C@H](Cc2ccccc2)NC(=O)[C@H](C(C)C)NC(=O)[C@H](CC(C)C)NC(=O)[C@H](Cc2c[nH]c3ccccc23)NC(=O)[C@H](Cc2ccc(O)cc2)NC(=O)[C@H](CCCCN)NC1=O (Ac-MCKREIKYWLVFCGSGSDYKDDDDK-NH2; disulfide 2-13) | 0.008 | > 10 | > 10 | 
CSCC[C@H](NC(C)=O)C(=O)N[C@H]1CSSC[C@@H](C(=O)NCC(=O)N[C@@H](CO)C(=O)NCC(=O)N[C@@H](CO)C(=O)N[C@@H](CC(=O)O)C(=O)N[C@@H](Cc2ccc(O)cc2)C(=O)N[C@@H](CCCCN)C(=O)N[C@@H](CC(=O)O)C(=O)N[C@@H](CC(=O)O)C(=O)N[C@@H](CC(=O)O)C(=O)N[C@@H](CC(=O)O)C(=O)N[C@@H](CCCCN)C(N)=O)NC(=O)[C@H](Cc2ccc(O)cc2)NC(=O)[C@H](Cc2c[nH]c3ccccc23)NC(=O)[C@H](CC(N)=O)NC(=O)[C@H](CCCNC(=N)N)NC(=O)[C@H](CC(=O)O)NC(=O)[C@H](CC(C)C)NC(=O)[C@H](CCCNC(=N)N)NC(=O)[C@H](Cc2ccc(O)cc2)NC(=O)[C@H](CCCCN)NC(=O)[C@H](Cc2c[nH]c3ccccc23)NC(=O)[C@H](C(C)C)NC1=O (Ac-MCVWKYRLDRNWYCGSGSDYKDDDDK-NH2; disulfide 2-14) | 2.04 | 0.078 | > 10 | 
CSCC[C@H](NC(C)=O)C(=O)N[C@H]1CSSC[C@@H](C(=O)NCC(=O)N[C@@H](CO)C(=O)NCC(=O)N[C@@H](CO)C(=O)N[C@@H](CC(=O)O)C(=O)N[C@@H](Cc2ccc(O)cc2)C(=O)N[C@@H](CCCCN)C(=O)N[C@@H](CC(=O)O)C(=O)N[C@@H](CC(=O)O)C(=O)N[C@@H](CC(=O)O)C(=O)N[C@@H](CC(=O)O)C(=O)N[C@@H](CCCCN)C(N)=O)NC(=O)[C@H](CCCNC(=N)N)NC(=O)[C@H](Cc2c[nH]cn2)NC(=O)[C@H](Cc2ccccc2)NC(=O)[C@H](CC(C)C)NC(=O)[C@H](CCCCN)NC(=O)[C@H](Cc2ccc(O)cc2)NC(=O)[C@H](Cc2ccc(O)cc2)NC(=O)[C@H](Cc2ccc(O)cc2)NC(=O)[C@H](C(C)C)NC(=O)[C@H](Cc2ccc(O)cc2)NC(=O)[C@H]([C@@H](C)O)NC1=O (Ac-MCTYVYYYKLFHRCGSGSDYKDDDDK-NH2; disulfide 2-14) | 0.003 | > 10 | > 10 | 
CC[C@H](C)[C@@H]1NC(=O)[C@H](CO)NC(=O)[C@@H](NC(=O)[C@H](CCSC)NC(C)=O)CSSC[C@@H](C(=O)NCC(=O)N[C@@H](CO)C(=O)NCC(=O)N[C@@H](CO)C(=O)N[C@@H](CC(=O)O)C(=O)N[C@@H](Cc2ccc(O)cc2)C(=O)N[C@@H](CCCCN)C(=O)N[C@@H](CC(=O)O)C(=O)N[C@@H](CC(=O)O)C(=O)N[C@@H](CC(=O)O)C(=O)N[C@@H](CC(=O)O)C(=O)N[C@@H](CCCCN)C(N)=O)NC(=O)[C@H](CC(C)C)NC(=O)[C@@H]2CCCN2C(=O)[C@H](CCCCN)NC(=O)[C@H]([C@@H](C)O)NC(=O)[C@H]([C@@H](C)CC)NC(=O)[C@H](CCCCN)NC(=O)[C@H](Cc2ccc(O)cc2)NC(=O)[C@H](Cc2c[nH]c3ccccc23)NC(=O)[C@H](CC(C)C)NC1=O (Ac-MCSILWYKITKPLCGSGSDYKDDDDK-NH2; disulfide 2-14) | 0.013 | > 10 | > 10 | 
CSCC[C@H](NC(C)=O)C(=O)N[C@H]1CSSC[C@@H](C(=O)NCC(=O)N[C@@H](CO)C(=O)NCC(=O)N[C@@H](CO)C(=O)N[C@@H](CC(=O)O)C(=O)N[C@@H](Cc2ccc(O)cc2)C(=O)N[C@@H](CCCCN)C(=O)N[C@@H](CC(=O)O)C(=O)N[C@@H](CC(=O)O)C(=O)N[C@@H](CC(=O)O)C(=O)N[C@@H](CC(=O)O)C(=O)N[C@@H](CCCCN)C(N)=O)NC(=O)[C@H](Cc2c[nH]c3ccccc23)NC(=O)[C@H](CCC(N)=O)NC(=O)[C@H](CCCCN)NC(=O)[C@H](Cc2c[nH]c3ccccc23)NC(=O)[C@H](CC(C)C)NC(=O)[C@H](CC(C)C)NC(=O)[C@H](Cc2ccccc2)NC(=O)[C@H](CC(C)C)NC(=O)[C@H](CCCCN)NC(=O)[C@H](Cc2ccc(O)cc2)NC1=O (Ac-MCYKLFLLWKQWCGSGSDYKDDDDK-NH2; disulfide 2-13) |  | > 10 | > 10 | > 10
CSCC[C@H](NC(C)=O)C(=O)N[C@H]1CSSC[C@@H](C(=O)NCC(=O)N[C@@H](CO)C(=O)NCC(=O)N[C@@H](CO)C(=O)N[C@@H](CC(=O)O)C(=O)N[C@@H](Cc2ccc(O)cc2)C(=O)N[C@@H](CCCCN)C(=O)N[C@@H](CC(=O)O)C(=O)N[C@@H](CC(=O)O)C(=O)N[C@@H](CC(=O)O)C(=O)N[C@@H](CC(=O)O)C(=O)N[C@@H](CCCCN)C(N)=O)NC(=O)[C@@H]2CCCN2C(=O)[C@H](Cc2ccc(O)cc2)NC(=O)[C@H](Cc2c[nH]c3ccccc23)NC(=O)[C@H](Cc2ccc(O)cc2)NC(=O)[C@H](CC(N)=O)NC(=O)[C@H](CO)NC(=O)[C@H](Cc2c[nH]c3ccccc23)NC(=O)[C@H](CCCNC(=N)N)NC(=O)[C@H](CO)NC(=O)[C@H](CCCNC(=N)N)NC(=O)[C@H](CCC(N)=O)NC(=O)[C@H](CCC(=O)O)NC1=O (Ac-MCEQRSRWSNYWYPCGSGSDYKDDDDK-NH2; disulfide 2-15) | > 10 | > 10 | > 10 | 
CC[C@H](C)[C@@H]1NC(=O)[C@H](Cc2ccc(O)cc2)NC(=O)[C@H](Cc2ccc(O)cc2)NC(=O)[C@H](Cc2ccccc2)NC(=O)[C@H](CC(C)C)NC(=O)[C@H](CC(=O)O)NC(=O)[C@H](CCC(=O)O)NC(=O)[C@@H](NC(=O)[C@H](CCSC)NC(C)=O)CSSC[C@@H](C(=O)NCC(=O)N[C@@H](CO)C(=O)NCC(=O)N[C@@H](CO)C(=O)N[C@@H](CC(=O)O)C(=O)N[C@@H](Cc2ccc(O)cc2)C(=O)N[C@@H](CCCCN)C(=O)N[C@@H](CC(=O)O)C(=O)N[C@@H](CC(=O)O)C(=O)N[C@@H](CC(=O)O)C(=O)N[C@@H](CC(=O)O)C(=O)N[C@@H](CCCCN)C(N)=O)NC(=O)CNC(=O)[C@H](Cc2ccc(O)cc2)NC(=O)[C@H](CCCNC(=N)N)NC(=O)[C@H](CC(N)=O)NC(=O)[C@H]([C@@H](C)CC)NC1=O (Ac-MCEDLFYYIINRYGCGSGSDYKDDDDK-NH2; disulfide 2-15) | 0.018 | > 10 | > 10 | 
